# Where a SMILES comes first, the peptide text is derived from it. [ ]: non-standard residue; d: D form. Aib = CC(C)(N)C(=O)O
# Legend:
# [1] = molecular target: T1, human GIPR (Homo sapiens, UniProt P48546); assay: GIPR Gαs [35S]GTPγS binding, GIPR-expressing membranes; format: biochemical
# T1 construct: expressed in transfected cells; host or cells: HEK293
# T1 sequence (P48546 22-466): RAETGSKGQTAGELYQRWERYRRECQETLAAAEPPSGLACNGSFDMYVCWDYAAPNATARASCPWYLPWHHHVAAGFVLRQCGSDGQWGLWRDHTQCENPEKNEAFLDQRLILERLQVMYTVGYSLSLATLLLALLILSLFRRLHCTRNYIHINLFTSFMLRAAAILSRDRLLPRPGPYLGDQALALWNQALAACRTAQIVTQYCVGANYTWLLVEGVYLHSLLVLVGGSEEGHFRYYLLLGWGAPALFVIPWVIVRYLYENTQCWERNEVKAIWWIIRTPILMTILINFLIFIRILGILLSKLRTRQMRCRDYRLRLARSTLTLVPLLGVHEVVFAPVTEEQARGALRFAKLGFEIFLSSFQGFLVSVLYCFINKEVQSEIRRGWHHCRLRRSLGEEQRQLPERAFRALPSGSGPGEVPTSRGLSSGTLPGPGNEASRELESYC
# Description: (§1) Fig. 4. […] (B) Ligand-induced GTPγS binding of Gαs was performed using the GIPR-expressing membranes. […] (C) Agonist-stimulated cAMP production was measured in human GIPR expressing HEK293 cells. […] (E) Ligand-induced GTPγS binding of Gαs was performed using the GLP-1R-expressing membranes. […] (F) Agonist-stimulated cAMP production was measured in human GLP-1R-expressing HEK293 cells. […] Data presented are representative of n ≥ 3 independent experiments. Summarized data are shown in SI Appendix, Table 2. log M; log Molar.
# (§2) We note that the albumin-binding propensity of fatty acid-modified peptides can confound a pharmacological comparison of molecules, given the common use of albumin and serum as nonspecific blocking agents in biological assays. Therefore, to obviate this, entirely albumin-free assays supplemented with bovine casein or bacitracin were used to prevent nonspecific binding ([10]).
# (§3) Functional potency (EC50)
# (§4) and efficacy (% Top) of ligands to induce Gα s -GTPγS binding and cAMP accumulation in HEK293 cells expressing GIPR were determined. The equilibrium affinity (KD) of
# (§5) ligands for the immobilized ectodomain of the GIPR were quantified by surface plasmon resonance. […]
# (§6) SPR data were analyzed using T200 evaluation software (Cytiva). All data are presented as geometric means with SEM and n values
# (§7) according to established practices. ND, not determined. NA, not applicable.
# [2] = molecular target: T1, human GIPR; assay: GIPR low density cAMP accumulation in HEK293 cells; format: cell-based
# Description: as §1, §2, §3, §4, §5, §6, §7
# [3] = molecular target: T2, GLP-1R (Homo sapiens, UniProt P43220); assay: Ligand-induced GLP-1R internalization, SNAP-GLP-1R HEK293 cells; format: cell-based; conditions: for GLP-1R Internalization Top: efficacy (% Top), percent internalization compared to maximal GLP-1, (SEM)
# Target sequence in this assay (P43220 24-463): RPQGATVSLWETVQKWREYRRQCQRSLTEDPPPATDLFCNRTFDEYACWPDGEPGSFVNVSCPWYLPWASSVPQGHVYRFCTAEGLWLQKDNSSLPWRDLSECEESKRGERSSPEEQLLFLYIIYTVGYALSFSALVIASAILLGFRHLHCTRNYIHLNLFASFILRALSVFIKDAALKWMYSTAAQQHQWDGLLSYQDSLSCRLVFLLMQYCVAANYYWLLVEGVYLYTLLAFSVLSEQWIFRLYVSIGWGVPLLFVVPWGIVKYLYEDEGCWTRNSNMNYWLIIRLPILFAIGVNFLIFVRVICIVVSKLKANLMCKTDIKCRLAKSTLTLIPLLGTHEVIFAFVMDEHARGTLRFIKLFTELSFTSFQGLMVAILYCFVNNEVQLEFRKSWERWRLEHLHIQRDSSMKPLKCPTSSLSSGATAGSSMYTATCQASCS
# [4] = molecular target: T2, GLP-1R; assay: β-arrestin 1 recruitment to the GLP-1R, NanoBRET; format: cell-based; set-up: expressed in transfected cells; conditions: efficacy (% Top), relative efficacy to GLP-1; (SEM)
# Description: Functional potency (EC50) […]
# and efficacy (% Top) of ligands to induce Gα s -GTPγS binding and cAMP accumulation in HEK293 cells expressing GIPR were determined. The equilibrium affinity (KD) of ligands for the immobilized ectodomain of the GIPR were quantified by surface plasmon resonance. Middle Panel: The affinity (Ki) of ligands for the GLP-1R was […]
# (§8) Functional potency (EC50) and efficacy (% Top) of ligands to induce Gα s-GTPγS binding and cAMP accumulation in HEK293 cells expressing GLP-1R were determined. The equilibrium affinity (KD) of ligands for the immobilized ectodomain of the GLP-1R were quantified by surface plasmon resonance. […]
# recruitment to the GLP-1R were determined using the NanoBRET approach. The potency (EC50) and efficacy (% Top) for ligands to induce GLP-1R Internalization were determined using diffusion-enhanced resonance energy transfer. […]
# relative efficacy for NanoBRET assays. SPR data were analyzed using T200 evaluation software (Cytiva). All data are presented as geometric means with SEM and n values according to established practices. ND, not determined. NA, not applicable.
# Target sequence in this assay (P43220 24-463): as above
# Target sequence in this assay (P49407 whole entry partner): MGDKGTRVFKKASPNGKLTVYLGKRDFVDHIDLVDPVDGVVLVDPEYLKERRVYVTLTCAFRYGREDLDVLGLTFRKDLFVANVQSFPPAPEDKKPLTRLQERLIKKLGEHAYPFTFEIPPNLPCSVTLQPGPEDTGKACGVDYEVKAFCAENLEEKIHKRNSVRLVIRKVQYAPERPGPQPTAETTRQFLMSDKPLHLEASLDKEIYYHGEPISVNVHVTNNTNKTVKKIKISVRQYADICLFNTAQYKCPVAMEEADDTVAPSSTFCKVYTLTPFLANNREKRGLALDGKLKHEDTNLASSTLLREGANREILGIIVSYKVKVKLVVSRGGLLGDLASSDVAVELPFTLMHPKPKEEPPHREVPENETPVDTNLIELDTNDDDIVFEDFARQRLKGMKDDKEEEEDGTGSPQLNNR
# [5] = molecular target: T2, GLP-1R; assay: GLP-1R Gαs [35S]GTPγS binding, GLP-1R-expressing membranes; format: biochemical; set-up: expressed in transfected cells; host or cells: HEK293; conditions: for GLP-1R GTPγS Recruitment Top: efficacy (% Top), normalized to GLP-1(7-36), (SEM)
# Description: as §1
# as §2, with “([10]). […]” for “([10]).”
# (§9) Middle Panel: The affinity (Ki) of ligands for the GLP-1R was […]
# as §8
# (§10) SPR data were analyzed using T200 evaluation software (Cytiva). All data are presented as geometric means with SEM and n values according to established practices. ND, not determined. NA, not applicable.
# Target sequence in this assay (P43220 24-463): as the sequence (P43220 24-463) above
# [6] = molecular target: T2, GLP-1R; assay: GLP-1R low density cAMP accumulation in HEK293 cells; format: cell-based; set-up: expressed in transfected cells; host or cells: HEK293; conditions: for GLP-1R Low Density cAMP Top: efficacy (% Top), normalized to GLP-1(7-36), (SEM)
# Description: as §1
# as §2, with “([10]). […]” for “([10]).”
# as §9, §8, §10
# Target sequence in this assay (P43220 24-463): as above
# [7] = molecular target: T2, GLP-1R; assay: GRK2 recruitment to the GLP-1R, NanoBRET; format: cell-based; set-up: expressed in transfected cells; host or cells: freestyle HEK cells; conditions: for GLP-1R GRK2 Recruitment Top: efficacy (% Top), relative to maximal GLP-1, (SEM)
# Description: After 48 h, transfected cells were incubated in phosphate-buffered saline (PBS) containing 0.1% (wt/vol) bovine casein and varying concentrations of the ligands. […]
# The potency (EC50) and efficacy (% Top) for ligands to induce GLP-1R Internalization were
# determined using diffusion-enhanced resonance energy transfer.
# relative efficacy for NanoBRET assays. SPR data were analyzed using T200 evaluation software (Cytiva). All data are presented as geometric means with SEM and n values
# as §7
# Target sequence in this assay (P43220 24-463): as above
# Target sequence in this assay (P25098 whole entry partner): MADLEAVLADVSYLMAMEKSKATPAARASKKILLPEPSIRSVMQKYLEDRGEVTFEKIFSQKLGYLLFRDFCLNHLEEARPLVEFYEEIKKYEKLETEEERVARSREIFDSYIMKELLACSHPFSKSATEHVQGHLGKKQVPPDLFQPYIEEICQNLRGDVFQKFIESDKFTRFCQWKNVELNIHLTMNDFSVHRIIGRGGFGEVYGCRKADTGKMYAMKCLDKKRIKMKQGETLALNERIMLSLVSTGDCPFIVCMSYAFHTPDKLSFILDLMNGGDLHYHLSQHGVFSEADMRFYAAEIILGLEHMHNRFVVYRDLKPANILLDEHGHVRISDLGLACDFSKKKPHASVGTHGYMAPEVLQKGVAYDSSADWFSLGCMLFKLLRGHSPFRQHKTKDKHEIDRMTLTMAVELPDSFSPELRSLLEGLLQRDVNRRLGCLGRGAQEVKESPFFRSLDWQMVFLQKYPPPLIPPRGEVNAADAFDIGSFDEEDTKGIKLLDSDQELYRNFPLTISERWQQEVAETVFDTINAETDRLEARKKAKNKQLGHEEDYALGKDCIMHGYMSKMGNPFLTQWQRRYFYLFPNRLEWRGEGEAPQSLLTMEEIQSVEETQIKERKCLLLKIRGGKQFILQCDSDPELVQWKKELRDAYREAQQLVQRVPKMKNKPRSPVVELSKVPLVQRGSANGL
# [8] = efficacy (% Top), normalized to GIP(1-42), (SEM)
smiles,measurement,setting,value
"CC[C@H](C)[C@H](NC(=O)[C@H](CC(C)C)NC(=O)[C@H](Cc1c[nH]c2ccccc12)NC(=O)[C@H](CCC(N)=O)NC(=O)[C@@H](NC(=O)[C@H](Cc1ccccc1)NC(=O)[C@H](C)NC(=O)[C@H](CCCCN)NC(=O)[C@H](CCC(N)=O)NC(=O)[C@H](C)NC(=O)[C@@H](NC(=O)[C@H](CCCCN)NC(=O)[C@H](CC(=O)O)NC(=O)[C@H](CC(C)C)NC(=O)C(C)(C)NC(=O)[C@@H](NC(=O)[C@H](CO)NC(=O)[C@H](Cc1ccc(O)cc1)NC(=O)[C@H](CC(=O)O)NC(=O)[C@H](CO)NC(=O)[C@@H](NC(=O)[C@H](Cc1ccccc1)NC(=O)[C@@H](NC(=O)CNC(=O)[C@H](CCC(=O)O)NC(=O)C(C)(C)NC(=O)[C@@H](N)Cc1c[nH]cn1)[C@@H](C)O)[C@@H](C)O)[C@@H](C)CC)[C@@H](C)CC)C(C)C)C(=O)N[C@@H](C)C(=O)NCC(=O)NCC(=O)N1CCC[C@H]1C(=O)N[C@@H](CO)C(=O)N[C@@H](CO)C(=O)NCC(=O)N[C@@H](C)C(=O)N1CCC[C@H]1C(=O)N1CCC[C@H]1C(=O)N1CCC[C@H]1C(=O)N[C@@H](CO)C(N)=O [Tzp ∆C20,Y1H] (H-H[Aib]EGTFTSDYSI[Aib]LDKIAQKAFVQWLIAGGPSSGAPPPS-NH2)",EC50,"[1]; Gαs-GTPγS binding, GIPR-expressing membranes, albumin-free, geometric mean (SEM, n), read-out: GIPR GTPγS Recruitment EC50",0.273 nM
same,GIPR GTPγS Recruitment Top,[1]; [8],31.4 (6.6) %
same,EC50,"[2]; cAMP accumulation, HEK293 cells expressing GIPR, albumin-free, geometric mean (SEM, n)",0.682 nM
same,GIPR Low Density cAMP Top,[2]; [8],80.9 (3.4) %
same,EC50,"[3]; diffusion-enhanced resonance energy transfer, SNAP-GLP-1R HEK293 cells, 37 °C, geometric mean (SEM, n)",2.13 nM
same,GLP-1R Internalization Top,[3],101 (6) %
same,GLP-1R β-Arr1 Recruitment Top,[4],74.6 (2.2) %
same,EC50,"[5]; Gαs-GTPγS binding, GLP-1R-expressing membranes, albumin-free, geometric mean (SEM, n), read-out: GLP-1R GTPγS Recruitment EC50",0.239 nM
same,GLP-1R GTPγS Recruitment Top,[5],88.9 (3.9) %
same,EC50,"[6]; cAMP accumulation, HEK293 cells expressing GLP-1R, albumin-free, geometric mean (SEM, n)",0.163 nM
same,GLP-1R Low Density cAMP Top,[6],111 (5) %
same,EC50,"[7]; NanoBRET, transfected freestyle HEK cells, PBS with 0.1% casein, geometric mean (SEM, n)",3.08 nM
same,GLP-1R GRK2 Recruitment Top,[7],84.2 (1.5 ) %
"CC[C@H](C)[C@H](NC(=O)[C@H](CC(C)C)NC(=O)[C@H](Cc1c[nH]c2ccccc12)NC(=O)[C@H](CCC(N)=O)NC(=O)[C@@H](NC(=O)[C@H](Cc1ccccc1)NC(=O)[C@H](C)NC(=O)[C@H](CCCCNC(=O)COCCOCCNC(=O)COCCOCCNC(=O)CC[C@H](NC(=O)CCCCCCCCCCCCCCCCCCC(=O)O)C(=O)O)NC(=O)[C@H](CCC(N)=O)NC(=O)[C@H](C)NC(=O)[C@@H](NC(=O)[C@H](CCCCN)NC(=O)[C@H](CC(=O)O)NC(=O)[C@H](CC(C)C)NC(=O)C(C)(C)NC(=O)[C@@H](NC(=O)[C@H](CO)NC(=O)[C@H](Cc1ccc(O)cc1)NC(=O)[C@H](CC(=O)O)NC(=O)[C@H](CO)NC(=O)[C@@H](NC(=O)[C@H](Cc1ccccc1)NC(=O)[C@@H](NC(=O)CNC(=O)[C@H](CCC(=O)O)NC(=O)C(C)(C)NC(=O)[C@@H](N)Cc1ccc(O)cc1)[C@@H](C)O)[C@@H](C)O)[C@@H](C)CC)[C@@H](C)CC)C(C)C)C(=O)N[C@@H](C)C(=O)NCC(=O)NCC(=O)N1CCC[C@H]1C(=O)N[C@@H](CO)C(=O)N[C@@H](CO)C(=O)NCC(=O)N[C@@H](C)C(=O)N1CCC[C@H]1C(=O)N1CCC[C@H]1C(=O)N1CCC[C@H]1C(=O)N[C@@H](CO)C(N)=O [Tzp, tirzepatide]",GLP-1R Internalization Top,[3],41.6 (3.0) %
same,GLP-1R β-Arr1 Recruitment Top,[4],7.55 (0.93) %
same,GLP-1R GTPγS Recruitment Top,[5],43.9 (1.7) %
same,GLP-1R Low Density cAMP Top,[6],99.5 (4.5) %
same,GLP-1R GRK2 Recruitment Top,[7],24.7 (2.8 ) %

# From PMC9060465 (Proceedings of the National Academy of Sciences of the …, 2022)
